# Assay results reported in PubChem BioAssay (NCI).
#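 All cell lines were grown in 96-well plates and treated with compound for 48 hours. Here, GI50 denotes the concentration required for 50% inhibition of growth. TGI denotes the concentration required for complete inhibition of growth.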
# Assays:
# Assay in all cases: NCI anticancer screen, dose series, 48 h
# [1] = test system: PC-3 prostate
# [2] = test system: T-47D breast
# [3] = test system: HOP-92 NSCLC
# [4] = test system: SK-MEL-28 melanoma
# [5] = test system: MDA-MB-435
# [6] = test system: SK-MEL-5 melanoma
# [7] = test system: CCRF-CEM leukemia
# [8] = test system: SN12C renal
# [9] = test system: OVCAR-8 ovarian
# [10] = test system: MOLT-4 leukemia
SMILES,TGI [1] [µM],TGI [2] [µM],TGI [3] [µM],TGI [4] [µM],TGI [5] [µM],TGI [6] [µM],TGI [7] [µM],TGI [8] [µM],TGI [9] [µM],TGI [10] [µM],GI50 [2] [µM],GI50 [3] [µM],GI50 [5] [µM],GI50 [6] [µM],GI50 [7] [µM],GI50 [8] [µM],GI50 [9] [µM],GI50 [10] [µM],GI50 [1] [µM],GI50 [4] [nM]
Cc1ccc(S(=O)(=O)Nc2cc(=O)[nH]c3c2CCC3)cc1,> 100,> 100,> 100,> 100,> 100,> 100,> 100,> 100,> 100,> 100,,,,,,,,,,
CCOC(=O)/C=C/C1=C(Br)[C@@]2(C)CC[C@@H]3c4ccc(O)cc4CC[C@H]3[C@@H]2C1,28.5,16.5,23.8,30,28.8,26.8,32.3,26.5,,43.2,,,,,,,,,,
CS(=O)(=O)Nc1cccc(-c2ccc3ncnc(Nc4cncc(Cl)c4)c3c2)c1,,6.36,26.8,,> 100,3.74,> 100,> 100,> 100,7.61,0.726,1.83,3.2,1.75,3.09,2.63,3.22,2.38,,
C#C[C@]1(O)[C@@H](CO)O[C@@H](n2ccc(=O)[nH]c2=O)[C@@H]1O,> 29.6,1.9,,31.3,3,13,> 100,,> 100,,,,,,,,,,,
CN(CCN1C(=O)c2cccc3cccc(c23)C1=O)CCN1C(=O)c2cccc3cccc(c23)C1=O,> 100,10.2,,> 100,> 100,> 100,6.91,> 100,19.2,> 100,,,,,,,,,,
NC(N)=N/N=C/c1c(-c2cccs2)nc2n1CCS2,36,37.3,,,30.7,29.1,34,32.4,> 100,28.5,17.5,,16.7,15.6,17.2,12.5,46.5,13.9,19.7,
Oc1ccc(Cl)cc1C1=Nn2c(COc3ccc4c(c3)CCCC4)nnc2SC1,26.7,34.3,18.1,14.4,36.1,19,46.3,19.9,30.9,43.8,,,,,,,,,,
c1ccc(C[N+]23C(CC[C@H]2c2ccccc2)CC[C@H]3c2ccccc2)cc1 (some centres not stated),> 100,> 100,52.3,> 100,54.8,19.1,> 100,> 100,> 100,> 100,,,,,,,,,,
OC1CCSc2ccccc21 (configuration not stated),,,,> 100,,> 100,> 100,> 100,> 100,> 100,,,,,,,,,,
Nc1csc(-c2scc3c2OCCO3)c1N,62.5,,71.8,49.5,36.1,35.4,,37.4,40.1,> 100,,,,,,,,,,
Cc1cc(=O)[nH]c(S(=O)(=O)NC(=O)Nc2cccc(Cl)c2)n1,> 100,> 100,> 100,> 100,> 48.3,> 100,> 100,> 100,> 100,> 100,,,,,,,,,,
CC1(C)CC(C(=O)OCCCCCCCCCCC[P+](c2ccccc2)(c2ccccc2)c2ccccc2)C(C)(C)N1O (configuration not stated),,,,1.97,1.33,0.299,0.766,,1.72,,,,0.274,0.15,0.11,,0.319,,,653
CCOC(=O)c1cccc(N=Nc2ncc(/C=C/C(=O)OC)[nH]2)c1,> 100,89.7,> 100,> 100,> 100,30.1,> 100,48.5,63.6,28.9,,,,,,,,,,
CC(C)(C)COS(=O)OCC(C)(C)C,> 100,> 100,> 100,> 100,> 100,> 100,> 100,> 100,> 100,> 100,,,,,,,,,,
Fc1c(F)c(F)c(CSc2nc3ccccc3[nH]2)c(F)c1F,> 100,> 100,> 100,> 100,> 100,> 100,> 100,> 100,> 100,> 100,,,,,,,,,,
CC12OC(C(=O)C13CCC3)C1C(=O)c3c(O)ccc(O)c3C(=O)C12 (configuration not stated),9.09,3.2,,6.35,5.81,26.1,> 100,0.0729,18.1,,0.948,,2.3,11,0.38,0.0256,7.04,0.123,2.72,2490

SMILES,TGI [1] [µM],TGI [2] [µM],TGI [3] [µM],TGI [4] [µM],TGI [5] [µM],TGI [6] [µM],TGI [7] [µM],TGI [8] [µM],TGI [9] [µM],TGI [10] [µM],GI50 [2] [µM],GI50 [3] [µM],GI50 [5] [µM],GI50 [6] [µM],GI50 [7] [µM],GI50 [8] [µM],GI50 [9] [µM],GI50 [10] [µM],GI50 [1] [µM],GI50 [4] [nM]
O=C(NN1CCCCC1)c1cc2cc(CCl)ccc2oc1=O,30.4,48.7,22.9,> 100,42.1,33.7,67.5,38.7,54.8,65.5,,,,,,,,,,
CN(C)c1ccc(/C=C2\C[C@H]3[C@@H]4CC=C5C[C@@H](O)CC[C@]5(C)[C@H]4CC[C@]3(C)[C@H]2O)cc1,25.8,76.6,,44.9,,34.3,,40,13.1,> 100,,,,,,,,,,
Cc1ccc([N+](=O)[O-])cc1S(=O)(=O)Nc1ccc(C2=NN(C(=O)c3ccccc3)C(c3ccccc3O)C2)cc1 (configuration not stated),29,30.1,26.4,> 100,> 100,34.7,> 100,33,57.7,51.5,,,,,,,,,,
C/C=C/C(O)P(=O)(OC)OC (configuration not stated),1.43,1.55,0.27,1.36,0.802,0.483,> 100,1.79,1.78,11.2,,,,,,,,,,
Clc1cccc(/C=c2\nc(-c3ccccc3)n3c2nc2ccccc23)c1,> 100,,48.4,> 100,> 100,> 100,> 100,> 100,> 100,> 100,,,,,,,,,,
COc1cc2cc[n+](C)c(Cc3ccc(Oc4cc(Cc5c6cc(OC)c(OC)cc6cc[n+]5C)ccc4OC)cc3)c2cc1OC,> 100,> 100,> 100,> 100,> 100,> 100,> 100,> 100,> 100,> 100,,,,,,,,,,
Nc1ccc(Cc2ccc(N)c(C(=O)O)c2)cc1C(=O)O,> 100,> 100,> 100,> 100,> 100,> 100,> 100,> 100,> 100,,,,,,,,,,,
C=C(CN(C)C)C(=O)c1ccccc1Cl,,,31.1,19.4,,57.8,44.3,42.3,45.2,> 75.2,,,,,,,,,,
O=S(C(c1ccccc1)=P(c1ccccc1)(c1ccccc1)c1ccccc1)c1ccc(Cl)cc1 (configuration not stated),68.4,> 100,42.2,> 100,40.6,27,> 100,,> 100,> 100,,,,,,,,,,
COc1ccc(-n2nc(C(=O)c3ccccc3)c3nn4c(=O)cc(-c5ccccc5)nc4nc32)cc1,> 100,> 100,> 100,> 100,> 100,> 100,> 100,> 100,> 100,> 100,32.4,37.4,51.9,41.7,28.9,41.7,40.1,34.8,50.5,38300
CN(CCCNC(=O)c1nn(-c2ccccc2)c2c1Cc1ccccc1-2)CCCNC(=O)c1nn(-c2ccccc2)c2c1Cc1ccccc1-2,3.09,3.6,3.26,2.77,2.87,3.02,2.42,3.2,3.39,2.95,,,,,,,,,,
CN(CCc1ccccn1)c1ccc2c(c1)Cc1ccccc1-2,23.9,92.5,31.9,> 100,> 100,31.3,68.8,> 100,77.8,> 100,,,,,,,,,,
O=C1CNc2cc(N3CCCCC3)ccc2N1,> 100,> 100,> 100,> 100,> 100,> 100,> 100,> 100,> 100,> 100,,,,,,,,,,
Cc1c2ccccc2cc2cccc[n+]12,> 100,,,70.5,> 100,92.3,> 100,> 100,> 100,> 100,,,,,,,,,,
CC(CCCCNC(=O)OC(C)(C)C)NC(=O)NC(C)CCCCNC(=O)OC(C)(C)C (configuration not stated),> 100,> 100,> 100,> 100,> 100,> 100,> 100,> 100,> 100,> 100,,,,,,,,,,
CS(=O)(=O)Nc1ccc(NCc2cnc3ccc4[nH]cccc4c23)cc1,48.1,66.6,> 100,66.4,32.5,28.8,58.5,88.8,> 100,33.6,,,,,,,,,,
